Consider 21 compounds from patent publication US12358907B2, “Substituted pyrrolidine amides III” (GRÜNENTHAL GMBH, priority 2019, dated 2025).

Usually inhibition stands for the drop in the measured response relative to a control, in per cent. The IC50 is the concentration that gives 50% inhibition.

Like-named read-outs stand apart in the source and are kept apart here. Some results are limits rather than exact numbers.

In assay [1] the target is human glucocorticoid receptor (Homo sapiens (Human), UniProt P04150). The assay is described as follows: Human glucocorticoid receptor (hGR) ligand-binding assay (3H-dexamethasone competition, IM9 cytosol). Particulars: read-out: % inhibition hGR at 1 μM. The protocol: Preferably, the glucocortitcoid receptor extracted from cytosol of IM9 cells is used for competitive radioligand binding assays to calculate percentage inhibition of the binding of radiolabeled ligand 3H-dexamethasone at the human glucocorticoid receptor.
human glucocorticoid receptor, sequence (P04150 whole entry): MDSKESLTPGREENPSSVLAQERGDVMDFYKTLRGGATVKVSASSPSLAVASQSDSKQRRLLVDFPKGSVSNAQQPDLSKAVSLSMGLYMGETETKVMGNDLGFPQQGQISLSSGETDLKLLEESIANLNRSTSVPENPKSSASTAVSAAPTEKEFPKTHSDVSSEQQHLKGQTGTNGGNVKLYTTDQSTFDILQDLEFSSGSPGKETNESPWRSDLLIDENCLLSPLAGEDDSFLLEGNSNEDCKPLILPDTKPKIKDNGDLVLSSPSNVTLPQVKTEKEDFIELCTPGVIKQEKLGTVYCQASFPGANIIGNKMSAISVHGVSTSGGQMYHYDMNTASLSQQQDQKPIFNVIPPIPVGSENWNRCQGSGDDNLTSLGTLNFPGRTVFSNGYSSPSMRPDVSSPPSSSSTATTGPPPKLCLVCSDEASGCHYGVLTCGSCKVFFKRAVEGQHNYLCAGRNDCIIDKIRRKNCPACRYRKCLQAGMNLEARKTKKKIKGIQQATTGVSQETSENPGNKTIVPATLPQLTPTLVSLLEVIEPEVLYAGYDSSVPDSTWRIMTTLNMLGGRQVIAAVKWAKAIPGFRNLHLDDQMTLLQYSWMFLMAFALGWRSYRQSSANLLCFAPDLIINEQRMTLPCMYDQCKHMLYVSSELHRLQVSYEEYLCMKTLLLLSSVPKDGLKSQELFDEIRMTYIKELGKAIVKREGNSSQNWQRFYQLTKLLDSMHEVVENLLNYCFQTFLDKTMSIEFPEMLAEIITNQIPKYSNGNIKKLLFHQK
The human lymphoblast cell line IM9 (ATCC, Bethesda, MD) was cultivated in RPMI 1640 media containing 10% fetal bovine serum, penicillin (100 U/ml), streptomycin (100 μg/ml), and 2 mM L-glutamine at 37° and 7% CO2 in a humidified incubator. Cells were centrifuged for 10 minutes at 1500 g and were washed in PBS and repelleted. Cell were then resuspended in homogenization buffer consisting of: 10 mM TES, 10 mM sodium molybdate, 1 mM EDTA, pH 7.4, 20 mM 2-mercaptoethanol, and 10% glycerol. Disruption of the cells was performed by nitrogen cavitation using 2×15 minutes at 600 to 750 psi nitrogen in a N2 cavitator at 0° C. The cell preparation was then centrifuged at 27,000 g for 15 minutes, and the resultant supernatant (=cytosol of IM9 cells) was centrifuged at 103,000 g for 60 minutes at 4° C. The amount of protein in the supernatant fraction was determined using a BCA assay kit and aliquots were snap frozen in a dry ice-acetone bath and stored at −70° C. Competitive binding assays were done in duplicate in homogenization buffer with a total volume of 200 μl. To this end, 1 mg of IM9 cytosol, 0.05 μCi (1.5 nM) of 3H-dexamethasone and unlabeled Example compounds as competitor compounds at 1 μM were mixed. The reaction was stopped after incubation at 0° C. for 16 to 18 hours by the addition of 100 μl of a charcoal-dextran mixture (2% activated charcoal, 0.5% dextran in 10 mM Tris, 1 mM EDTA, pH 7.4). Another incubation step at 0° C. for 10 minutes followed before the samples were centrifuged for 5 minutes at 8200 g. 100 μl of the supernatant) was finally assayed for radioactivity by liquid scintillationspectrometry, and percentage inhibition of 3H-dexamethasone binding was calculated.

Assay [2] concerns the target glucocorticoid receptor (GAL4 DBD-GR) (Homo sapiens (Human), UniProt P04150). In words: GR cell-based assays (GRE agonist / GRE antagonist), CHO-Gal4/GR luciferase reporter. The method, boiled down:
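CHO cells stably carrying GAL4 DBD-GR ligand-binding-domain fusion and a GAL4-UAS firefly luciferase reporter were treated in Opti-MEM with 8 half-log concentrations from 10 μM to 0.003 μM (0.5% DMSO, quadruplicates). Antagonist mode measured repression of beclomethasone-induced signal. Luminescence after lysis gave EC50 or IC50.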
(In general: In a reporter assay the amount or activity of a reporter protein is the signal.)

Where [3] appears, read: CHO-Gal4/GR reporter cells, agonist mode (EC50) or antagonist mode against beclometasone (IC50), 6 hour incubation.

glucocorticoid receptor (GAL4 DBD-GR), sequence (P04150 524-758): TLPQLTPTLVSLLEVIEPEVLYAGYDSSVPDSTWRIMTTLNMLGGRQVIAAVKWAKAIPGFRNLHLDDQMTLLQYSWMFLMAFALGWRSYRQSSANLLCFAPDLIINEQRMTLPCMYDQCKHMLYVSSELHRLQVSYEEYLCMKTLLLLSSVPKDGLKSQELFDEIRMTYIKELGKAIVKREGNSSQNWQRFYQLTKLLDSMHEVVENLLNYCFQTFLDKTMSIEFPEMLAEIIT

For the compound `Cn1ccc(C(=O)N[C@@H]2[C@@H](c3ccccc3)N(c3ccc4c(cnn4-c4ccc(=O)n(C)c4)c3)C(=O)C2(C)C)n1` [Example 12, N-[(2R,3S)-4,4-Dimethyl-1-[1-(1-methyl-6-oxo-1H-pyridin-3-yl)-1H-indazol-5-yl]-5-oxo-2-phenyl-pyrrolidin-3-yl]-1-methyl-1H-pyrazole-3-carboxylic acid amide], the inhibition at 1 µM in assay [1] was determined as 83%.

Turning to `Cn1cc(-n2ncc3cc(N4C(=O)C(C)(C)[C@H](NC(=O)C(C)(F)F)[C@H]4c4ccccc4)ccc32)ccc1=O` [Example 9, N-[(2R,3S)-4,4-Dimethyl-1-[1-(1-methyl-6-oxo-1H-pyridin-3-yl)-1H-indazol-5-yl]-5-oxo-2-phenyl-pyrrolidin-3-yl]-2,2-difluoro-propionamide], in assay [1], the inhibition at 1 µM was 86%.

For `Cc1ncsc1C(=O)N[C@@H]1[C@@H](c2ccccc2)N(c2ccc3c(cnn3-c3ccc(=O)n(C)c3)c2)C(=O)C1(C)C` [Example 16, N-[(2R,3S)-4,4-Dimethyl-1-[1-(1-methyl-6-oxo-1H-pyridin-3-yl)-1H-indazol-5-yl]-5-oxo-2-phenyl-pyrrolidin-3-yl]-4-methyl-thiazole-5-carboxylic acid amide], the inhibition at 1 µM in assay [1] came out at 30%.

Turning to `Cc1nc(C(=O)N[C@@H]2[C@@H](c3ccccc3)N(c3ccc4c(cnn4-c4ccc(=O)n(C)c4)c3)C(=O)C2(C)C)no1` [Example 14, N-[(2R,3S)-4,4-Dimethyl-1-[1-(1-methyl-6-oxo-1H-pyridin-3-yl)-1H-indazol-5-yl]-5-oxo-2-phenyl-pyrrolidin-3-yl]-5-methyl-[1,2,4]oxadiazole-3-carboxylic acid amide], the inhibition at 1 µM in assay [1] came to 84%.

Regarding `Cn1cc(-n2ncc3cc(N4C(=O)C(C)(C)[C@H](NC(=O)c5cscn5)[C@H]4c4ccccc4)ccc32)ccc1=O` [Example 17, N-[(2R,3S)-4,4-Dimethyl-1-[1-(1-methyl-6-oxo-1H-pyridin-3-yl)-1H-indazol-5-yl]-5-oxo-2-phenyl-pyrrolidin-3-yl]-thiazole-4-carboxylic acid amide], the inhibition at 1 µM in assay [1] was found to be 80%.

Consider `Cn1cc(-n2ncc3cc(N4C(=O)C(C)(C)[C@@H](NC(=O)c5cncs5)[C@@H]4c4ccccc4)ccc32)ccc1=O` [Example 24, N-[(2S,3R)-4,4-Dimethyl-1-[1-(1-methyl-6-oxo-1H-pyridin-3-yl)-1H-indazol-5-yl]-5-oxo-2-phenyl-pyrrolidin-3-yl]-thiazole-5-carboxylic acid amide], for which the inhibition at 1 µM in assay [1] came out at 12%.

For the compound `Cn1cc(-n2ncc3cc(N4C(=O)C(C)(C)[C@@H](NC(=O)C(C)(F)F)[C@@H]4c4ccccc4)ccc32)ccc1=O` [Example 8, N-[(2S,3R)-4,4-Dimethyl-1-[1-(1-methyl-6-oxo-1H-pyridin-3-yl)-1H-indazol-5-yl]-5-oxo-2-phenyl-pyrrolidin-3-yl]-2,2-difluoro-propionamide], in assay [1], the inhibition at 1 µM was found to be 12%.

On to `Cn1cc(-n2ncc3cc(N4C(=O)C(C)(C)[C@H](NC(=O)c5cncs5)[C@H]4c4ccccc4)ccc32)ccc1=O` [Example 15, N-[(2R,3S)-4,4-Dimethyl-1-[1-(1-methyl-6-oxo-1H-pyridin-3-yl)-1H-indazol-5-yl]-5-oxo-2-phenyl-pyrrolidin-3-yl]-thiazole-5-carboxylic acid amide], for which the inhibition at 1 µM in assay [1] turned out to be 87%.

As to `CC(F)(F)C(=O)N[C@@H]1[C@@H](c2ccccc2)N(c2ccc3c(cnn3-c3ccc(F)cc3)c2)C(=O)C1(C)C` [Example 10, 2,2-Difluoro-N-[(2R,3S)-1-[1-(4-fluorophenyl)-1H-indazol-5-yl]-4,4-dimethyl-5-oxo-2-phenyl-pyrrolidin-3-yl]-propionamide], in assay [1], the inhibition at 1 µM came to 100%.

With `Cn1cc(-n2ncc3cc(N4C(=O)C(C)(C)[C@H](NC(=O)c5cnco5)[C@H]4c4ccccc4)ccc32)ccc1=O` [Example 13, N-[(2R,3S)-4,4-Dimethyl-1-[1-(1-methyl-6-oxo-1H-pyridin-3-yl)-1H-indazol-5-yl]-5-oxo-2-phenyl-pyrrolidin-3-yl]-oxazole-5-carboxylic acid amide], the inhibition at 1 µM in assay [1] is 20%.

On to `Cn1cc(-n2ncc3cc(N4C(=O)C5(CC5)[C@H](NC(=O)C5CC5)[C@H]4c4ccccc4)ccc32)ccc1=O` (racemic) [Example 30, N-[rac-(6R,7S)-5-[1-(1-Methyl-6-oxo-1H-pyridin-3-yl)-1H-indazol-5-yl]-4-oxo-6-phenyl-5-azaspiro[2.4]heptan-7-yl]-cyclopropanecarboxylic acid amide], for which the inhibition at 1 µM in assay [1] was found to be 27%.

On to `Cc1ncoc1C(=O)N[C@@H]1[C@@H](c2ccccc2)N(c2ccc3c(cnn3-c3ccc(F)cc3)c2)C(=O)C1(C)C` [Example 45a, N-((2R,3S)-1-(1-(4-fluorophenyl)-1H-indazol-5-yl)-4,4-dimethyl-5-oxo-2-phenylpyrrolidin-3-yl)-4-methyloxazole-5-carboxamide], for which, in assay [2] (setting [3]), the IC50 is under 100 nM.

For `C[C@@H]1C(=O)N(c2ccc3c(cnn3-c3ccc(F)cc3)c2)[C@H](c2ccccc2Cl)[C@H]1NC(=O)c1cccnc1` (racemic) [Example 92, N-[rac-(2R,3S,4S)-2-(2-Chlorophenyl)-1-[1-(4-fluorophenyl)-1H-indazol-5-yl]-4-methyl-5-oxo-pyrrolidin-3-yl]-pyridine-3-carboxylic acid amide], the half-inhibitory concentration (IC50) in assay [2] (read-out: IC50 or EC50) was under 100 nM.

Consider `Cc1ncsc1C(=O)N[C@H]1[C@H](C)C(=O)N(c2ccc3c(cnn3-c3ccc(F)cc3)c2)[C@@H]1c1ccc(Cl)s1` (racemic) [Example 113, N-[rac-(2S,3S,4S)-2-(5-Chloro-thiophen-2-yl)-1-[1-(4-fluorophenyl)-1H-indazol-5-yl]-4-methyl-5-oxo-pyrrolidin-3-yl]-4-methyl-thiazole-5-carboxylic acid amide], for which the IC50 in assay [2] (read-out: IC50 or EC50) lay within 100 to 1000 nM.

Consider `Cc1cccc([C@@H]2[C@@H](NC(=O)c3ncccn3)[C@H](C)C(=O)N2c2ccc3c(cnn3-c3ccc(F)cc3)c2)c1` (racemic) [Example 69, N-[rac-(2R,3S,4S)-1-[1-(4-Fluorophenyl)-1H-indazol-5-yl]-4-methyl-2-m-tolyl-5-oxo-pyrrolidin-3-yl]-pyrimidine-2-carboxylic acid amide], for which, in assay [2] (read-out: IC50 or EC50), the half-inhibitory concentration (IC50) is under 100 nM.

As to `CC[C@@H]1[C@@H](NC(=O)c2ccn(C)n2)[C@H](Cc2ccccc2)C(=O)N1c1ccc2c(cnn2-c2ccc(F)cc2)c1` (racemic) [Example 104, N-[rac-(2R,3S,4S)-4-Benzyl-2-ethyl-1-[1-(4-fluorophenyl)-1H-indazol-5-yl]-5-oxo-pyrrolidin-3-yl]-1-methyl-1H-pyrazole-3-carboxylic acid amide], the IC50 in assay [2] (read-out: IC50 or EC50) was in the range of 1000 to 15000 nM.

As for `Cc1ncc(C(=O)N[C@@H]2[C@@H](c3ccccc3)N(c3ccc4c(cnn4-c4ccc(F)cc4)c3)C(=O)C2(C)C)o1` [Example 44a, N-((2R,3S)-1-(1-(4-fluorophenyl)-1H-indazol-5-yl)-4,4-dimethyl-5-oxo-2-phenylpyrrolidin-3-yl)-2-methyloxazole-5-carboxamide], the IC50 in assay [2] (setting [3]) is under 100 nM.

For the compound `O=C(N[C@H]1C(CCc2ccccc2)C(=O)N(c2ccc3c(cnn3-c3ccc(F)cc3)c2)[C@@H]1c1ccccc1)C1CC1` (single isomer, unassigned) [Example 127], in assay [2] (read-out: IC50 or EC50), the half-inhibitory concentration (IC50) fell in the range of 100 to 1000 nM.

Regarding `Cc1cccc([C@@H]2[C@@H](NS(C)(=O)=O)[C@H](C)C(=O)N2c2ccc3c(cnn3-c3ccc(F)cc3)c2)c1` (racemic) [Example 62, N-[rac-(2R,3S,4S)-1-[1-(4-Fluorophenyl)-1H-indazol-5-yl]-4-methyl-2-m-tolyl-5-oxo-pyrrolidin-3-yl]-methanesulfonic acid amide], the half-maximal inhibitory concentration (IC50) in assay [2] (read-out: IC50 or EC50) was in the range of 100 to 1000 nM.

For `CC[C@@H]1[C@@H](NC(=O)C2CC2)[C@@](F)(Cc2ccccc2)C(=O)N1c1ccc2c(cnn2-c2ccc(F)cc2)c1` (racemic) [Example 137, N-(rac-(2R,3R,4S)-4-benzyl-2-ethyl-4-fluoro-1-(1-(4-fluorophenyl)-1H-indazol-5-yl)-5-oxopyrrolidin-3-yl)cyclopropanecarboxamide], in assay [2] (read-out: IC50 or EC50), the 50% inhibitory concentration (IC50) is under 100 nM.

As for `C[C@@H]1C(=O)N(c2ccc3c(cnn3-c3ccc(F)cc3)c2)[C@H](c2ccccc2Cl)[C@H]1NS(C)(=O)=O` (racemic) [Example 93, N-[rac-(2R,3S,4S)-2-(2-Chlorophenyl)-1-[1-(4-fluorophenyl)-1H-indazol-5-yl]-4-methyl-5-oxo-pyrrolidin-3-yl]-methanesulfonic acid amide], in assay [2] (read-out: IC50 or EC50), the concentration for half-maximal inhibition (IC50) is under 100 nM.
